Data: patent US11820762B2, “Compounds as potential therapeutic agents targeting various neurodegenerative diseases” (The Hong Kong University of Science and Technology, priority 2020, dated 2023)

Legend:
[1] = test system: differentiated HT22 cells; test: cells; assay type: cell-based; conditions: for neuroprotective activity compared with cA: comparison of analogs; for EC50: Mus musculus, HT-22, differentiated HT22 cells pre-treated with 5 mM L-glutamate, cell viability
Procedure: Cytotoxicity of compounds was tested by MTT assay. Cells were grown in DMEM (Gibco) with 10% FBS and 1% penicillin-streptomycin at 37° C. with 5% CO2. In total, 5×10^3 cells were seeded in each well of 96-well plates and cultured for 24 hours. Then cells were treated with different concentrations of compounds dissolved in DMSO for another 24 hours. After incubating with 20 μl of MTT (5 mg/mL) for each well at 37° C. for another four hours, 100 μl of DMSO was added to dissolve formazan. Absorbance was measured using a Multiskan™ FC microplate photometer at 570 nm. IC50 data were analyzed with GraphPad Prism software.
Cultured HT22 cells were differentiated by applying 10 μM retinoic acid (Sigma-Aldrich, R2625-50MG) and 500 μM cAMP (Sigma-Aldrich, A6885) in DEME medium supplied with 0.5% FBS (differentiation medium) and incubated 48 hours before adding other treatments. 5 mM L-glutamate acid was applied to the original differentiation medium for further 24-hours incubation. Cell viability was measured by MTT assay described above.
In the C9orf72 associated ALS/FTD, the G4C2 HRE make motor neurons more vulnerable to aberrant neuron excitation^43. Meanwhile, the hyperactivation of glutamate receptors drives a toxic level of neuronal activity, promoting the non-ATG (RAN) translation of G4C2 repeat-associated DPR proteins^44, leading to further toxicity of motor neurons. Thus, we would like to test our compounds in a glutamate (E)-induced excitotoxicity cell model.

Tau-R3 = target: T1, Tau-R3 (Homo sapiens, UniProt P10636); test: Thioflavin T (ThT) fluorescent tau-R3 aggregation assay; assay type: biochemical; conditions: 20 μM Tau-R3, 10 μM heparin, read-out: IC50 of Tau-R3 aggregation inhibition (converted)
T1 construct: Tau-R3 protein was synthesized and purchased from ChinaPeptides Co., Ltd; purchased ChinaPeptides Co., Ltd; host or cells: chemical synthesis
T1 sequence (P10636 623-653 limits assumed): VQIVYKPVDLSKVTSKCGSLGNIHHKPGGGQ
Procedure: Tau-R3 protein was synthesized and purchased from ChinaPeptides Co., Ltd. ThT (ab120751, 1 mM) solution was freshly prepared in 50 mM Tris-HCl buffer (pH 7.4) and passed through a 0.45 μm pore size filter to remove insoluble particles before use. Tau-R3 (20 μM) was incubated with 20 μM ThT and 10 μM heparin in the presence or absence of cA, cB and cC. Samples in 200 μL were added to 96-well plates and incubated at 37° C. for 24-48 hours. ThT fluorescence intensity was recorded using a microplate reader with 440/480 nm excitation/emission filters at different time points. Non-linear regression analysis was performed to fit the boltzmann sigmoidal.
In the C9orf72 ALS/FTD, there is a strong genetic association between the microtubule-binding protein, tau and the G4C2 HRE. […] The co-expression of Tau and G4C2 repeats produces a synergistic deterioration of the neurodegeneration phenotype of ALS/FTD^46. Considering the tight correlation of Tau aggregation with the ALS/FTD pathogenesis, we tested our compounds in a non-cell-based Tau-R3 aggregation inhibition assay. […] Moreover, we conducted high magnification TEM imaging to characterize the morphological changes of Tau-R3 fibrils with cA, cB and cC treatments. […] Furthermore, the misfolding of tau protein into filaments in neurons of the central nervous system can be found in various neurodegenerative diseases, such as Alzheimer's disease et al. Therefore, the inhibition on tau aggregation represented a potential of cA and its derivatives in targeting multiple other neurodegenerative diseases more than ALS.

[2] = test system: DNA (G4C2)4 (SEQ ID NO: 5) G4; test: 1D 1H-NMR titration of DNA (G4C2)4 G4; assay type: binding; conditions: for binding to DNA (G4C2)4 G4 by NMR titration: G4:compound ratio 1:1 to 1:10
Procedure: (§1) Single […] were purchased from Integrated DNA Technologies (IDT) and Takara. Single-strand DNA/RNA sample at 100 μM was then annealed by heating up to 95° C. for 15 mins, and slowly cooled to room temperature in the annealing buffer (70 mM KCl, 20 mM potassium phosphate (pH 7.0)) for overnight. The final NMR samples contained 0.1 mM DNA or RNA in 70 mM KCl and 20 mM potassium phosphate buffer (pH 7.0).
(§2) The 1D ^1H-NMR spectra were performed at 25° C. All compounds were dissolved in isotope-labeled d6-DMSO (Sigma-Aldrich) at about 50 mM concentration, working as stock solutions. To avoid chemical shift changes of DNA/RNA G4 resulted from d6-DMSO addition, […] d6-DMSO was added into 500 μL of 0.1 mM DNA/RNA G4 solution in the NMR buffer (20 mM potassium phosphate buffer and 70 mM KCl, pH 7.0, 10% D2O) and then 1D ^1H-NMR spectrum was recorded as a reference. During NMR titration experiments of adding each compound into the DNA/RNA G4 solution, the maximal volume of 10 μL of each compound in d6-DMSO solution was regarded as a final data point.
We next confirmed the binding of cA and DNA (G4C2)4 (SEQ ID NO: 5) G4 by NMR titration experiments.

RRM domain of hnRNP H = target: T2, RRM domain of hnRNP H (Homo sapiens, UniProt P31943); test: 1H-15N HSQC NMR titration of hnRNP H RRM domain; assay type: binding; conditions: ratios 1:5 and 1:10
T2 construct: HSQC spectra of RRM1/2 of hnRNP H; hexahistidine (cleaved yes); made in house; host or cells: Escherichia coli BL21(DE3), pET-28a(+)
T2 sequence (P31943 1-194 limits assumed): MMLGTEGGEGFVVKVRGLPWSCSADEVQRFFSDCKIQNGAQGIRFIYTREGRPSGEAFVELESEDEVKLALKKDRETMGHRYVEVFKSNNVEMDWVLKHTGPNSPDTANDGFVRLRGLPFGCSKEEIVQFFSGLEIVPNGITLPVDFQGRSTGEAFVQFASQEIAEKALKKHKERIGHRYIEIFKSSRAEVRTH
Procedure: The coding sequence of the RRM domain of hnRNP H/F, or human Orc6 was inserted into the expression vector pET-28a(+) (Novagen). Protein was expressed in Escherichia coli BL21(DE3) at 37° C. for 5 hours. Cell lysates were subject to affinity purification with nickel-nitrilotriacetic acid resin (Qiagen) followed by cleavage of hexahistidine tag with Protease 3C enzyme. Products were further purified on a Superdex 75 column (GE Healthcare). For NMR studies, uniformly ^15N labeled protein was expressed and purified as described above, except for cells grown in M9 medium containing 100% ^15N enriched ammonium chloride (Cambridge Isotopes) and d-glucose.
Titration experiments were performed by recording a series of 2D ^15N-HSQC spectra on uniformly ^15N-labeled RRM domain (˜0.1 mM) in the presence of different amounts of DNA/RNA or compounds at 25° C. Protein samples and stock solutions of DNA/RNA were all prepared in 20 mM potassium phosphate buffer and 70 mM KCl, pH 7.0, 10% D2O. All compounds were dissolved in isotope-labeled d6-DMSO (Sigma-Aldrich) at about 50 mM concentration, working as stock solutions. To avoid chemical shift changes of protein samples resulted from d6-DMSO addition, 10 μL d6-DMSO was added into 500 μL of 0.1 mM protein solution in the NMR buffer (20 mM potassium phosphate buffer and 70 mM KCl, pH 7.0, 10% D2O) and then the 2D HSQC was recorded as a reference.
In this scenario, specific RNA-binding proteins (RBPs), like hnRNP H, are recruited by the RNA foci, resulting in RNA processing impairment and further cytotoxicity to the central nervous system^30,36,37. Therefore, we tested the binding possibility of cA with the RRM domain of hnRNP H by NMR titration. […] Intriguingly, the DNA (G4C2)4 (SEQ ID NO: 5) G4 was also shown a potent binding affinity to the RRM domain of hnRNP H (FIG. 4C).

[3] = test system: RNA (G4C2)2 (SEQ ID NO: 8) G4; test: 1D 1H-NMR titration of RNA (G4C2)2 G4; assay type: binding; conditions: ratios 1:3, 1:5, 1:10
Procedure: as §1
as §2, with “point. […]” for “point.”

[4] = test system: DNA (G4C2)2 (SEQ ID NO: 4) G4; test: 1D 1H-NMR titration of DNA (G4C2)2 G4; assay type: binding; conditions: cA at 1:1, 1:5, 1:10
Procedure: as §1, §2
(§3) In addition to the four-repeat G4C2 DNA G4, there are parallel and hybrid G4 conformations formed simultaneously by the two-repeat G4C2 DNA^38,39. […]

[5] = test system: human telomeric variant htel21_T18 G4; test: 1D 1H-NMR titration of human telomeric variant htel21_T18 G4; assay type: binding; conditions: cA at 1:10
Procedure: as §1, §2, §3

[6] = Parallel artificial membrane permeability assay (PAMPA); assay type: in vitro ADME; conditions: 500 μM; 37° C., 18 hours
Procedure: 500 μL of 500 μM test compound and 200 μM Equilibrium Standards for each test compound were prepared. 5 μL DMSO plus 245 μL PBS served as blank control. Firstly, 300 μL PBS was added to each well in the acceptor plate. With the donor plate in its tray, 5 μL 4% Lecithin in Dodecane was added directly to the well membranes of the donor plate. 200 μL of each 500 μM test compound was added to duplicate wells of the donor plate. The donor plate was carefully placed into the acceptor plate wells and incubated at 37° C. for 18 hours. Then the liquid in acceptor plate wells was collected as Acceptor Solution for analysis. Absorbance spectrum from 200 nm to 500 nm in 10 nm intervals was read to determine the peak absorbance of test compounds and blank control.
In addition, we also tested the permeability on live cells. Neuro2a cells treated with cA at different concentrations (10 μg/ml, 20 μg/ml) for different incubation time (24 h, 48 h) were lysed. Supernatants of cell lysates were collected and analyzed by UPLC-MS. Meanwhile, cell media from different treatment groups were used as control. […] In contrast, the intensity of cA signal was the same in the three corresponding cell media groups (FIG. 25, 4-6).

SMILES | cytotoxicity (structure-activity summary) [1] | neuroprotective activity compared with cA [1] | IC50 (Tau-R3) [µM] | EC50 [1] [µM] | binding to DNA (G4C2)4 G4 by NMR titration [2] | also measured
COc1c2c(c(OC)c3c(=O)c4cccc(O[C@@H]5O[C@H](C(=O)O)[C@@H](O)[C@H](O)[C@H]5O)c4oc13)-c1c(cc(CC(C)=O)c(C(=O)O)c1O)CC2 [cE, chrexanthomycin E] | showed cytotoxicity | worse than cA | 6.13 | – | – | –
COc1c2c(c(O)c3c(=O)c4cccc(O[C@@H]5O[C@H](C(=O)O)[C@@H](O)[C@H](O)[C@H]5O)c4oc13)-c1c(cc(CC(C)=O)c(C(=O)O)c1O)CC2 [cD, chrexanthomycin D] | showed cytotoxicity | worse than cA | 4.75 | 53.6 | – | –
C[C@@]1(O)Cc2cc3c(c(O)c2C(=O)O1)-c1c(c(O)c(O)c2c(=O)c4cccc(O[C@@H]5OC(C(=O)O)=C[C@H](O)[C@H]5O)c4oc12)CC3 [cF, chrexanthomycin F] | – | worse than cA | – | – | proved to bind | binding affinity order according to NMR titration ([2]; DNA (G4C2)4 G-quadruplex and hnRNP H, FIGS. 3C-3E): cC>cA>cB>cF; binding to RRM domain of hnRNP H by NMR titration (RRM domain of hnRNP H): much weaker bindings
N=C(N)c1ccc(-c2ccc(-c3ccc(-c4ccc(C(=N)N)cn4)o3)o2)nc1 [DB1246, reference compound] | – | – | – | – | strongly bound | binding to RNA (G4C2)2 G4 by NMR titration [3]: strongly bound; binding to DNA (G4C2)2 G4 by NMR titration [4]: strongly bound; binding to htel21_T18 G4 by NMR titration [5]: strongly bound; permeability (PAMPA) [6]: much worse permeability than cA, cB, cC
CC12CC3CC(C)(C1)CC(N)(C3)C2 [memantine, reference compound] | – | – | – | 23.9 | – | –
COCCOC(=O)C1=C(C)NC(C)=C(C(=O)OC(C)C)C1c1cccc([N+](=O)[O-])c1 (stereo not drawn) [nimodipine, reference compound] | – | – | – | 1.14 | – | –
